For one data set, the system named is Sphaerotheca fuliginea. As to the kind of experiment: Sphaerotheca test (cucumber)/protective. The format is in vivo. An outline of the steps: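 Infection was rated 7 days after spore inoculation as % efficacy (0% = control level, 100% = no disease). Inoculation followed 1 day after preventive spray of young cucumbers with compound formulated in N,N-dimethylformamide plus emulsifier and diluted with water; plants were held at 23 °C and 70% relative humidity.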

In another data set the test system is Botrytis cinerea. Kind of data set: Botrytis test (bean)/protective. The note with it: 100 ppm active compound, protective, evaluation 2 days after inoculation. The format is in vivo. The procedure: (§1) Solvents: 24.5 parts by weight of acetone
(§2) • 24.5 parts by weight of dimethylacetamide Emulsifier: 1 part by weight of alkylaryl polyglycol ether
(§3) To produce a suitable preparation of active compound, 1 part by weight of active compound is mixed with the stated amounts of solvents and emulsifier, and the concentrate is diluted with water to the desired concentration.
To test for protective activity, young plants are sprayed with the active compound preparation at the stated application rate. After the spray coating has dried on, 2 small pieces of agar colonized by Botrytis cinerea are placed onto each leaf. The inoculated plants are placed in a dark chamber at about 20° C. and 100% relative atmospheric humidity.
2 days after the inoculation, the size of the infected areas on the leaves is evaluated. 0% means an efficacy which corresponds to that of the control, whereas an efficacy of 100% means that no infection is observed.

The subject of another data set is Alternaria solani. Kind of data set: Alternaria test (tomato)/protective. The format is in vivo. An outline of the steps: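 Treatment was protective: spray application at the stated rate came one day before spore inoculation. Incubation was 24 h at 22 °C and 100% humidity, then 20 °C and 96% humidity. Infection was rated at day 7 as % efficacy against the control, with 100% meaning no disease.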

The next data set relates to Venturia inaequalis. As to the kind of experiment: Venturia test (apple)/protective. The format is in vivo. The note with it: 100 ppm active compound, protective, evaluation 10 days after inoculation. The procedure:
Solvents: 24.5 parts by weight of acetone • 24.5 parts by weight of dimethylacetamide Emulsifier: 1 part by weight of alkylaryl polyglycol ether
as §3
To test for protective activity, young plants are sprayed with the active compound preparation at the stated application rate. After the spray coating has dried on, the plants are inoculated with an aqueous conidia suspension of the apple scab pathogen Venturia inaequalis and then remain in an incubation cabin at about 20° C. and 100% relative atmospheric humidity for 1 day.
(§4) The plants are then placed in a greenhouse at about 21° C. and a relative atmospheric humidity of about 90%.
(§5) Evaluation is carried out 10 days after the inoculation. 0% means an efficacy which corresponds to that of the control, whereas an efficacy of 100% means that no infection is observed.

A further data set concerns Pyrenophora teres. Kind of data set: Pyrenophora teres test (barley)/protective. It counts as in vivo. An outline of the steps:
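Efficacy, read 7-9 days after spore inoculation, runs from 0% (equal to untreated control) to 100% (no infection). Barley sprayed with water-diluted DMF/emulsifier formulation was inoculated one day later, incubated 48 h at 22° C. and 100% rel. humidity, then held at 20° C. and 80% humidity.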

For another data set, the system named is Uromyces appendiculatus. Kind of data set: Uromyces test (bean)/protective. The format is in vivo. The note with it: in vivo. The procedure: as §1, §2, §3
To test for protective activity, young plants are sprayed with the active compound preparation at the stated application rate. After the spray coating has dried on, the plants are inoculated with an aqueous spore suspension of the bean rust pathogen Uromyces appendiculatus and then remain in an incubation cabin at about 20° C. and 100% relative atmospheric humidity for 1 day.
as §4, §5

Another data set concerns Leptosphaeria nodorum. Kind of data set: Leptosphaeria nodorum test (wheat)/protective. It counts as in vivo. An outline of the steps:
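Young wheat plants were sprayed protectively, then inoculated 1 day later with L. nodorum spores and held 48 h at 100% humidity and 22° C. They were then kept in a greenhouse at 90% humidity and 22° C. Efficacy was scored 7-9 days post-inoculation, where 0% equals control and 100% means no infection.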

A further data set concerns Phytophthora infestans. The format is in vivo.
For a further data set, the system named is DON/AcDON production. As to the kind of experiment: microbe, parasite or virus in culture. It counts as cell-based, Fusarium graminearum. The note with it: 7 days at 28° C.
A further data set has as its system Fusarium graminearum. Kind of data set: microbe, parasite or virus in culture. The format is cell-based.
A short description of data set [1]: log P determination by HPLC retention times (alkan-2-one calibration).
In data set [2] the test system is Fusarium nivale (var. majus). Kind of data set: Fusarium nivale (var. majus) test (wheat)/protective. The format is in vivo. The settings on record: 1000 ppm active compound, protective, evaluation 5 days after inoculation. The procedure:
Solvent: 49 parts by weight of N,N-dimethylacetamide
Emulsifier: 1 part by weight of alkylaryl polyglycol ether
To produce a suitable preparation of active compound, 1 part by weight of active compound is mixed with the stated amounts of solvent and emulsifier, and the concentrate is diluted with water to the desired concentration.
To test for protective activity, young plants are sprayed with the active compound preparation at the stated application rate.
After the spray coating has dried on, the plants are sprayed with spores of a spore suspension of Fusarium nivale (var. majus).
The plants are placed in a greenhouse chamber under a translucent incubation hood at 10° C. and 100% relative atmospheric humidity.
Evaluation is carried out 5 days after the inoculation. 0% means an efficacy which corresponds to that of the control, whereas an efficacy of 100% means that no infection is observed.

The mark [3] stands for this setting: 500 ppm active compound, tomato, protective, evaluation 7 days after inoculation.

Where two headings read alike, the source gives them in different places.

Turning to `CCC(=O)Nc1cc(-c2c(-c3ccc(F)cc3)nn3c2CCOC3(C)C)ccn1` [Example 86], the efficacy in % in the data set with Sphaerotheca fuliginea (in vivo) is 100%; in the data set on Botrytis cinerea, 100%; in the data set on Alternaria solani (in vivo) it was 90%; with Venturia inaequalis, 95%; in the data set on Pyrenophora teres (in vivo), 100%; with Uromyces appendiculatus, 95%. This compound also registered an efficacy in % in the data set with Leptosphaeria nodorum (in vivo) of 70%.
For `CC1CCc2c(-c3ccnc(NC(=O)C4CC4)c3)c(-c3ccc(F)cc3)nn21` (stereo not shown) [Example 78], the efficacy in % with Sphaerotheca fuliginea (in vivo) was 100%; in the data set on Botrytis cinerea, 100%; in the data set with Venturia inaequalis, 100%; in the data set on Pyrenophora teres (in vivo), 95%; in the data set with Uromyces appendiculatus, 94%; with Leptosphaeria nodorum (in vivo) it was 100%.
In the case of `CC(=O)Nc1cc(-c2c(-c3cccs3)nn3c2CCCC3)ccn1` [Example 87], the efficacy in % in the data set on Sphaerotheca fuliginea (in vivo) is 95%; in the data set on Botrytis cinerea it was 100%; with Alternaria solani (in vivo) it was 80%; in the data set on Pyrenophora teres (in vivo) it was 90%; in the data set with Uromyces appendiculatus, 93%; in the data set with Phytophthora infestans (in vivo) it was 90%. In the data set on Leptosphaeria nodorum (in vivo), the efficacy in % is on record as 70%.
`O=C(Nc1cc(-c2c(-c3ccccc3)nn3c2CCCC3)ccn1)c1ccccc1` [Example 33]: the efficacy in % with Sphaerotheca fuliginea (in vivo) came to 95%; in the data set on Botrytis cinerea it was 98%; with Alternaria solani (in vivo), 89%; in the data set on Venturia inaequalis it was 95%; in the data set on Pyrenophora teres (in vivo) it was 78%; with Uromyces appendiculatus, 95%. The efficacy in % in the data set with Phytophthora infestans (in vivo) and with Leptosphaeria nodorum (in vivo) was 70% throughout. The “% inhibition of DON/AcDON at 50 μM” value in the data set on DON/AcDON production amounted to 99%. In the data set on Fusarium graminearum, the “% inhibition of the fungal growth of Fusarium graminearum at 50 μM” value (from here on “% inhibition of the fungal growth … at 50 μM”) was found to be 100%.
With `COC1CCCn2nc(-c3ccc(F)cc3)c(-c3ccncc3)c21` (stereo not shown) [Example 85], the efficacy in % is on record as 85% with Sphaerotheca fuliginea (in vivo); 100% in the data set on Botrytis cinerea; 100% with Pyrenophora teres (in vivo); 85% in the data set on Uromyces appendiculatus; 90% in the data set with Phytophthora infestans (in vivo); 75% in the data set on Leptosphaeria nodorum (in vivo).
Take `O=C(Nc1cc(-c2c(-c3cccs3)nn3c2CCCC3)ccn1)C1CC1` [Example 89]: the efficacy in % worked out at 100% in the data set on Sphaerotheca fuliginea (in vivo); 100% in the data set with Botrytis cinerea; 90% in the data set with Alternaria solani (in vivo); 94% in the data set on Venturia inaequalis; 95% with Pyrenophora teres (in vivo); 95% in the data set on Uromyces appendiculatus. For the same compound, the efficacy in % in the data set with Phytophthora infestans (in vivo) was determined as 90%; with Leptosphaeria nodorum (in vivo) it was 80%.
`CC(C)CC(=O)Nc1cc(-c2c(-c3ccsc3)nn3c2CCCC3)ccn1` [Example 64]: the efficacy in % in the data set with Sphaerotheca fuliginea (in vivo) is on record as 86%; with Botrytis cinerea, 100%; with Alternaria solani (in vivo), 100%; in the data set with Venturia inaequalis, 99%; in the data set with Pyrenophora teres (in vivo), 100%; in the data set on Uromyces appendiculatus, 78%. For the same compound, the figures for the efficacy in % in the data set on Phytophthora infestans (in vivo) and with Leptosphaeria nodorum (in vivo) were 80% and 94%, respectively. Besides, in the data set with DON/AcDON production, the “% inhibition of DON/AcDON at 50 μM” value is reported as 100%. Besides, in the data set with Fusarium graminearum, the “% inhibition of the fungal growth … at 50 μM” value is given as 100%.
Usually inhibition stands for how much of the control response was suppressed. One may read the chromatographic logP as a lipophilicity value derived from retention on a column. Low values mean lower lipophilicity, high ones higher lipophilicity. As for `Fc1ccc(-c2nn3c(c2-c2ccncc2)CCCC3)cc1` [Example 2, 2-(4-Fluorophenyl)-3-(pyridin-4-yl)-4,5,6,7-tetrahydropyrazolo[1,5-a]pyridine], the efficacy in % is on record as 91% with Sphaerotheca fuliginea (500 ppm active compound, cucumber, protective, evaluation 7 days after inoculation); 100% in the data set on Botrytis cinerea; 94% in the data set with Alternaria solani (setting [3]); 95% in the data set with Venturia inaequalis; 95% in the data set on Pyrenophora teres (500 ppm active compound, barley, protective, evaluation 7-9 days after inoculation); 94% in the data set on Phytophthora infestans (setting [3]). The efficacy in % in the data set with Leptosphaeria nodorum (500 ppm active compound, wheat, protective, evaluation 7-9 days after inoculation) is given as 80%. The inhibition at 50 µM turned out to be 100% in the data set with DON/AcDON production (Fusarium graminearum, 168 h) and 99% with Fusarium graminearum (Fusarium graminearum, 72 h, read-out: % inhibition of the fungal growth of Fusarium graminearum at 50 μM). Further, the chromatographic logP in data set [1] (log P(HCOOH), HCOOH, preparation examples in the text) was found to be 1.03; in data set [1] (log P, values marked [a] in Table 1), 1.03; in data set [1] (log P, values marked [b] in Table 1), 2.43.
`c1ccc(-c2nn3c(c2-c2ccncc2)CCCC3)cc1` [Example 9]: the efficacy in % was 86% in the data set with Sphaerotheca fuliginea (in vivo); 93% in the data set on Botrytis cinerea; 100% in the data set on Alternaria solani (in vivo); 95% with Venturia inaequalis; 94% with Pyrenophora teres (in vivo); 90% in the data set on Phytophthora infestans (in vivo). The compound further came in with an efficacy in % in the data set with Leptosphaeria nodorum (in vivo) of 95%. Moreover, the “% inhibition of DON/AcDON at 50 μM” value with DON/AcDON production was found to be 99%. The “% inhibition of the fungal growth … at 50 μM” value in the data set with Fusarium graminearum is 100%.
Consider `CC(C)C(=O)Nc1cc(-c2c(-c3ccc(F)cc3)nn3c2CCOC3)ccn1` [Example 91], for which the efficacy in % was determined as 100% with Sphaerotheca fuliginea (in vivo); 100% in the data set with Botrytis cinerea; 90% in the data set on Alternaria solani (in vivo); 95% in the data set with Venturia inaequalis; 95% in the data set on Pyrenophora teres (in vivo); 95% in the data set with Uromyces appendiculatus. In the data set on Leptosphaeria nodorum (in vivo), this compound registered an efficacy in % of 78%.
`Fc1ccc(-c2nn3c(c2-c2ccncc2)CCC3)cc1` [Example 7]: the efficacy in % was 90% in the data set on Sphaerotheca fuliginea (in vivo); 95% with Botrytis cinerea; 95% in the data set on Alternaria solani (in vivo); 76% with Venturia inaequalis; 80% with Pyrenophora teres (in vivo); 95% with Phytophthora infestans (in vivo). Further, the “% inhibition of DON/AcDON at 50 μM” value with DON/AcDON production worked out at 99%. In the data set with Fusarium graminearum, the “% inhibition of the fungal growth … at 50 μM” value worked out at 100%.
For `CN(C)C=Nc1cc(-c2c(-c3ccccc3)nn3c2CCCC3)ccn1` [Example 38], the efficacy in % in the data set on Alternaria solani (in vivo) is 95%; in the data set on Pyrenophora teres (in vivo) it was 95%; in the data set with Phytophthora infestans (in vivo) it was 70%; in data set [2], 86%. In addition, the “% inhibition of DON/AcDON at 50 μM” value with DON/AcDON production was 99%. Also, in the data set on Fusarium graminearum, the “% inhibition of the fungal growth … at 50 μM” value is reported as 89%.
For `O=C(Nc1cc(-c2c(-c3ccccc3)nn3c2CCCC3)ccn1)c1ccsc1` [Example 51], the efficacy in % in the data set on Botrytis cinerea stood at 99%; with Alternaria solani (in vivo) it was 95%; in the data set on Venturia inaequalis, 74%; in the data set with Pyrenophora teres (in vivo), 90%; in the data set with Uromyces appendiculatus, 86%. In addition, in the data set on DON/AcDON production, the “% inhibition of DON/AcDON at 50 μM” value came to 100%. Moreover, in the data set on Fusarium graminearum, the “% inhibition of the fungal growth … at 50 μM” value is recorded as 41%.
